From US20100040623A1, “NEURITOGENIC AND NEURONAL SURVIVAL PROMOTING PEPTIDES DERIVED FROM THE FAMILY OF S-100 PROTEINS” (priority 2005, published 2010)

Experiments:
[1] = test system: primary hippocampal neurons; assay: Neurite outgrowth from primary hippocampal neurons; type: cell-based, Wistar rat; details: for neurite outgrowth from hippocampal primary neurons (average neurite length): treated with various concentrations of peptide for 24 hours; for stimulation of neurite outgrowth in vitro (conclusion): summary statement
Experimental: (§1) Dissociated hippocampal and cerebellar (CGN) neurons were isolated from Wistar rat embryos at embryonic day 19 or newborn rats as previously described by Rønn et al. (1999). Briefly, hippocampus was isolated from the brain in ice cold modified Krebs Ringer solution, cleared of blood vessels, roughly homogenised by chopping and then trypsinised. The dissociated cells were washed in the presence of DNAse 1 and soybean trypsin inhibitor. Postnatal hippocampal neurons were plated at a density of 10,000 cells/cm^2 on uncoated 8-well permanox Lab-Tek chamber slides in Neurobasal medium supplemented with 0.4% (w/v) bovine serum albumin (BSA; Sigma-Aldrich), 2% (v/v) B27 Neurobasal supplement, 1% (v/v) glutamax, 100 U/ml penicillin, 100 μg/ml streptomycin and 2% 1 M HEPES (all from Gibco, BRL). After 24 hours, the neurons were fixed with 4% (v/v) formaldehyde for 20 minutes and thereafter immunostained using primary rabbit antibodies against GAP-43 and Alexa Fluor secondary goat anti-rabbit Ig antibodies. Images of at least 200 neurons for each group in each individual experiment were obtained systematically by computer assisted fluorescence microscopy as previously described (Rønn et al., 2000). Briefly, a Nikon Diaphot inverted microscope with a Nikon Plan 20× objective (Nikon, Tokyo, Japan) coupled to a video camera (Grundig Electronics, Germany) was used for recordings. A software package Prima developed at the Protein Laboratory (Copenhagen, Denmark) was used to make a stereologically based determination of neurite length (Rønn et al., 2000).
(§2) Neuronal cell cultures were treated with various concentrations of a peptide for 24 hours, and the average neurite length was evaluated as described above. […] Thus peptide segments number 3 and number 6 from various members of the S100 protein family may represent potent pharmacological tools to induce neuronal differentiation and axon regeneration.

[2] = test system: cerebellar (CGN) neurons; assay: Neurite outgrowth from primary cerebellar neurons; type: cell-based, Wistar rat; details: treated with various concentrations of peptide for 24 hours
Experimental: as §1, §2

[3] = test system: cultured hippocampal neurons; assay: Intracellular Ca2+ concentration, fura-2 loaded neurons; type: cell-based; details: fura-2 ratiometric dye
[4] = test system: CREB; assay: Phosphorylation of CREB in primary hippocampal neurons (PAGE method); type: cell-based; details: neurons cultured 6 hours, stimulated 15 minutes
Experimental: (§3) Primary hippocampal neurons cultured for 6 hours were stimulated with H3 or H6 for 15 minutes. Thereafter the phosphorylation level of the three intracellular messengers involved in neurite outgrowth and survival, Akt, CREB, and ERK, was determined using the PAGE method.

[5] = test system: focal brain injury on the right fronto-parietal cortex; assay: Traumatic brain injury (cryolesion): TUNEL, GFAP, PCNA; type: in vivo, Rats and mice; details: 10 mg/kg s.c. at day -1, 1 and 2; post-lesion day 4
Experimental: A focal brain injury on the right fronto-parietal cortex was made by applying a piece of dry-ice (−78° C.) directly onto the skull for 30 seconds in mice and 60 seconds in rats, as previously described in details (Penkowa et al., 2003).
Histochemistry and immunohistochemistry were performed on sections cut from organs taken from fixated animals. Rats and mice were deeply anesthetized with Brietal and flushed by cardiac perfusion with saline containing heparine (0.9% NaCl, 3 ml/L 5000IU heparine) for 2 minutes followed by fixation with Zamboni's fixative (pH 7.4) for 4-8 minutes depending on the size of the animal. For immunohistochemical investigation, brain were dissected and postfixed in Zamboni's for 2-3 hours, dehydraded in graded alcohol followed by xylol and subsequently embedded in paraffin before being cut in 3 μm frontal sections throughout the entire area of the cryo lesion. For heat-induced epitope retrieval, the sections were boiled in citrate buffer (pH 6 or 9) in a microwave oven for 10 minutes followed by incubation in 10% goat serum (In Vitro, Fredensborg, DK) or donkey serum (code BP 005.1; The Binding Site, Birmingham, UK) in tris buffered saline (TBS)/Nonidet P-40 (0.01%) for 30 minutes at room temperature. Sections with mouse tissue used for incubation with monoclonal mouse-derived antibodies were also incubated with Blocking Solutions A+B from the HistoMouse-SP kit to quench endogenous mouse IgG (Zymed, Calif., USA).
Following treatment as described above, sections were incubated overnight at 5° C. with one of the following primary antibodies: polyclonal rabbit anti-cow glial fibrillary acidic protein (GFAP) 1:250 (a marker for astrocytes; DakoCytomation); monoclonal mouse anti-rat proliferating cellular nuclear antigen (PCNA) 1:10 (marking proliferating cell nuclear antigen/cell proliferation; DakoCytomation). The primary antibody was detected with biotynilated secondary antibodies, incubated with streptavidinbiotin-peroxidase complex for 30 min.
Terminal deoxynucleotidyl transferase (TdT)-mediated deoxyuridine triphosphate (dUTP)-biotin nick end labelling (TUNEL) was performed using the Fragment End Labeling (FragEL™) Detection Kit (Calbiochem, USA, code QIA33). The FragEL kit contains all the materials used below and each step was performed according to the manufacturer's recommendations. The tissue was processed and rehydrated as mentioned above, and sections were incubated with 20 µg/ml proteinase K for 20 min to strip off nuclear proteins. After immersion in equilibration buffer for 20 min, sections were incubated with TdT and biotin-labeled deoxynucleotids (dNTP-biotin) in a humified chamber at 37° C. for 1.5 hr. This was followed by wash buffer and the stop solution for 5 min at room temperature to stop the reaction. After washing in TBS and incubation in blocking buffer for 10 min, the sections were incubated with Peroxidase-Streptavidin for 30 min and afterwards, DAB was used as chromogen. The sections were counterstained with methyl-green. Negative control sections were treated similarly but incubated in the absence of TdT enzyme or dNTP-biotin or Peroxidase-Streptavidin. We also compared our sections with positive control slides provided in the FragEL Detection Kit. Furthermore, TUNEL was compared with other stainings for apoptosis (activated caspase-3, cytochrome-c and TNF[…]-R1). In addition, the morphologic criteria for apoptosis, i.e. cell shrinkage, formation of apoptotic bodies, membrane blebbing, no loss of cellular integrity, compaction of chromatin into uniformly dense masses, were evaluated.
In addition to morphological evaluation, quantification (cellular counts) of some of the variables, i.e. GFAP-positive cells, the area of GFAP-immunoreactivity, % of TUNEL-positive cells, % of proliferating cells, were analyzed. The analysis was carried out from the penumbra area of 3 μm brain sections for statistical analysis of the results. […]

[6] = test system: kainic acid (KA)-induced toxicity; assay: Kainic acid-induced toxicity (seizures, mortality); type: in vivo, Male C57BL/6J mice; details: peptide 10 mg/kg daily from day -2; for amount of seizures: 20 mg/kg KA; for profile of seizures (severity): 30 mg/kg KA
Experimental: Male C57BL/6J mice were injected with 10 mg/kg H3 or H6 daily starting from day-2 prior to kainic acid treatment. At day 0 the animals were injected 30 mg/kg KA in order to induce severe seizures, or 20 mg/kg KA in order to induce mild seizures and prevent excessive mortality. Latency and seizure severity were scored for 2 h postinjection by using a numerical scale of 0 to 6: 0—immobility; 1—facial automatism; 2—head nodding; 3—forelimb clonus; 4—rearing; 5—generalized convulsions; 6—death. Control animals received s.c injection of vehicle.

[7] = test system: ERK; assay: Phosphorylation of ERK in primary hippocampal neurons (PAGE method); type: cell-based; details: neurons cultured 6 hours, stimulated 15 minutes
Experimental: as §3

[8] = test system: Akt; assay: Phosphorylation of Akt in primary hippocampal neurons (PAGE method); type: cell-based; details: neurons cultured 6 hours, stimulated 15 minutes
Experimental: as §3

[9] = test system: sciatic nerve crush; assay: Functional recovery after sciatic nerve crush (Sciatic Function Index); type: in vivo, Wistar rats; details: 10 mg/kg daily for 18 days
Experimental: Nerve crush of sciatic nerve was performed as follows. Before surgery, animals were anesthetized with subcutaneous injection of a Fenthanil/Droperidol/Medazolam (0.8 ml per 100 g). The right hind limb was shaved and swabbed with antiseptic solution. A longitudinal cutaneous incision was made in the back of the thigh. Dissection was carried out along a plane separating the hamstring and gluteal muscles to expose the sciatic nerve. Careful dissection was performed to isolate the sciatic nerve from the surrounding connective tissue over a length of 2 to 2.5 cm. The sciatic nerve was unilaterally crushed twice in the same place (0.5 cm upper trifurcation) for a 30 sec using a locking surgical needle holder. The place of the crush was labelled with 5-0 suture material attached to the epineurium. […] The bottom of the corridor was lined with paper, upon which the hind pawprints of the rat were recorded. […] Several prints of each foot were inspected, and the best corresponding pair of prints from experimental (E) and normal (N) legs were measured to the nearest millimeter, using a caliper. Three footprint parameters were measured: distance from the heel to the third toe, print length (PL), the distance between the first and fifth toe, toe spread (TS), and distance between the second and fourth toe, the intermediary toe spread (IT). […]

[10] = test system: hippocampal neurons; details: Novitskaya et al., 2000; cited from earlier work

| Substance | neurite outgrowth from hippocampal primary neurons (average neurite length) [1] | neurite outgrowth from cerebellar primary neurons (average neurite length) [2] | level of intracellular Ca2+ ([Ca2+]i) [3] | phosphorylation level of CREB [4] | area of GFAP-immunoreactivity (astrogliosis) [5] | cell death (apoptosis, DNA fragmentation/TUNEL) in the cortex induced by cryolesion [5] | number of GFAP-positive cells (astrogliosis) [5] | stimulation of neurite outgrowth in vitro (conclusion) [1] | amount of seizures [6] | profile of seizures (severity) [6] | phosphorylation level of ERK [7] | phosphorylation level of Akt [8] | also measured |
| --- | --- | --- | --- | --- | --- | --- | --- | --- | --- | --- | --- | --- | --- |
| KQLLTKELANTIKNIK [A12H3, tetrameric peptide (hekatone) representing region 3 of S100A12] | strongly induced neurite outgrowth | strongly induced neurite outgrowth | – | – | – | – | – | – | – | – | – | – | – |
| NEFFEGFPDKQPRKK [A4H6, tetrameric peptide (hekatone) representing region 6 of S100A4] | strongly induced neurite outgrowth | strongly induced neurite outgrowth | significantly increased | significantly increased phosphorylation | increase | protected cells in the cortex from cell death | increase | potent stimulators of neurite outgrowth | decreased the amount of seizures | towards less severe seizures types | significantly increased phosphorylation | significantly increased phosphorylation | – |
| KELLTRELPSFLGKRT [A4H3, tetrameric peptide (hekatone) representing region 3 of S100A4] | strongly induced neurite outgrowth | strongly induced neurite outgrowth | but not H3 significantly increased | significantly increased phosphorylation | increase | protected cells in the cortex from cell death | increase | potent stimulators of neurite outgrowth | decreased the amount of seizures | towards less severe seizures types | significantly increased phosphorylation | significantly increased phosphorylation | recovery of the motor function of the injured limb (SFI) [9]: strongly promoted the recovery |
| HYHTHKE [A12H6, tetrameric peptide (hekatone) representing region 6 of S100A12] | – | – | – | – | – | – | – | potent stimulators of neurite outgrowth | – | – | – | – | – |
| DEAAFQKLMSNLD [A4H4, tetrameric peptide (hekatone) representing region 4 of S100A4] | – | – | – | – | – | – | – | – | – | – | – | – | proliferation of neural progenitor cells [5]: strongly induced proliferation |
| S100A4: S100 family Ca2+-binding protein S100A4 (also termed Mts1) | – | – | – | – | – | – | – | – | – | – | – | – | neurite outgrowth in hippocampal neurons in vitro [10]: potent promoter of neurite outgrowth |
